Results reported in patent publication US6680335B2, “Methods of modulating protein tyrosine kinase function with substituted indolinone compounds” (Sugen, Inc., priority 1998, dated 2004).

Columns and labels:
FLK-1 receptor = biological target: T1, FLK-1 receptor (Mus musculus, UniProt P35918); assay: ELISA assay measuring the kinase activity of the FLK-1 receptor in cells engineered to express FLK-1; format: cell-based; conditions: FLK-1 expressing NIH3T3 C7#3 cells, VEGF stimulated; for inhibition at 100 µM: compound at 100 μM; for IC50: cells without % or + sign
T1 construct: expressed in transfected cells; host or cells: NIH3T3 C7#3 cells
Method: An ELISA assay was conducted to measure the kinase activity of the FLK-1 receptor and more specifically, the inhibition or activation of TK activity on the FLK-1 receptor. Specifically, the following assay was conducted to measure kinase activity of the FLK-1 receptor in cells genetically engineered to express FLK-1.
(11) NIH3T3 C7#3 Cells (FLK-1 expressing cells);
The following protocol was used for conducting the assay:
1. Coat Corning 96-well elisa plates with 1.0 μg per well Cappel Anti-rabbit IgG antibody in 0.1 M Na2CO3 pH 9.6. Bring final volume to 150 μL per well. Coat plates overnight at 4° C. Plates can be kept up to two weeks when stored at 4° C.
2. Grow cells in Growth media (DMEM, supplemental with 2.0 mM L-Glutamine, 10% FBS) in suitable culture dishes until confluent at 37° C., 5% CO2.
3. Harvest cells by trypsinization and seed in Corning 25850 polystyrene 96-well roundbottom cell plates, 25.000 cells/well in 200 μL of growth media.
4. Grow cells at least one day at 37° C., 5% CO2.
5. Wash cells with D-PBS 1×.
6. Add 200 μL/well of starvation media (DMEM, 2.0 mM 1-Glutamine, 0.1% FBS). Incubate overnight at 37° C., 5% CO2.
7. Dilute Compounds 1:20 in polypropylene 96 well plates using starvation media. Dilute dimethylsulfoxide 1:20 for use in control wells.
8. Remove starvation media from 96 well cell culture plates and add 162 μL of fresh starvation media to each well.
9. Add 18 μL of 1:20 diluted Compound dilution (from step 7) to each well plus the 1:20 dimethylsulfoxide dilution to the control wells (+/−VEGF), for a final dilution of 1:200 after cell stimulation. Final dimethylsulfoxide is 0.5%. Incubate the plate at 37° C., 5% CO2 for two hours.
10. Remove unbound antibody from ELISA plates by inverting plate to remove liquid. Wash 3 times with TBSW+0.5% ethanolamine, pH 7.0. Pat the plate on a paper towel to remove excess liquid and bubbles.
11. Block plates with TBSW+0.5% Ethanolamine, pH 7.0, 150 μL per well. Incubate plate thirty minutes while shaking on a microliter plate shaker.
12. Wash plate 3 times as described in step 10.
13. […] Bring final volume to 150 μL/well with TBSW+0.5% ethanolamine pH 7.0. Incubate plate for thirty minutes while shaking.
14. Add 180 μL starvation medium to the cells and stimulate cells with 20 μL/well 10.0 mM sodium ortho vanadate and 500 ng/mL VEGF (resulting in a final concentration of 1.0 mM sodium ortho vanadate and 50 ng/mL VEGF per well) for eight minutes at 37° C., 5% CO2. Negative control wells receive only starvation medium.
15. After eight minutes, media should be removed from the cells and washed one time with 200 μL/well PBS.
16. Lyse cells in 150 μL/well HNTG while shaking at room temperature for five minutes. HNTG formulation includes sodium ortho vanadate, sodium pyro phosphate and EDTA.
17. Wash ELISA plate three times as described in step 10.
18. Transfer cell lysates from the cell plate to ELISA plate and incubate while shaking for two hours. To transfer cell lysate pipette up and down while scrapping the wells.
19. Wash plate three times as described in step 10.
20. Incubate ELISA plate with 0.02 μg/well UB40 in TBSW+05% ethanolamine. Bring final volume to 150 μL/well. Incubate while shaking for 30 minutes.
21. Wash plate three times as described in step 10.
22. Incubate ELISA plate with 1:10,000 diluted EIA grade goat anti-mouse IgG conjugated horseradish peroxidase in TBSW+0.5% ethanolamine, pH 7.0. Bring final volume to 150 μL/well. Incubate while shaking for thirty minutes.
23. Wash plate as described in step 10.
24. Add 100 μL of ABTS/H2O2 solution to well. Incubate ten minutes while shaking.
25. Add 100 μL of 0.2 M HCl for 0.1 M HCl final to stop the color development reaction. Shake 1 minute at room temperature. Remove bubbles with slow stream of air and read the ELISA plate in an ELISA plate reader at 410 nm.
(§1) The IC50 values were measured for several of the compounds of the invention.

pyk-2 protein kinase = biological target: T2, pyk-2 protein kinase (Homo sapiens, UniProt Q14289); assay: Assay measuring PYK-2 protein kinase activity (phosphorylation of a biotinylated peptide); format: biochemical; conditions: pyk-2 from transformed yeast lysate, 5 μM ATP; for inhibition at 100 µM: compound at 100 μM; for IC50: cells without %
T2 construct: made in house; host or cells: Schizosaccharomyces pombe strain SP200, pRSP expression plasmids
Method: This assay is used to determine pyk-2 protein kinase activity measuring phosphorylation of a biotinylated peptide as the readout.
a. Yeast transformed with pyk-2.
b. Cell lysates: Yeast cells expressing pyk-2 are pelleted, washed once with water, re-pelleted and stored at −80° C. until use.
c. N-terminus biotinylated […] is prepared by standard procedures well known to those skilled in the art.
h. […] S. Pombe strain SP200 (h-s leul.32 ura4 ade21O) was grown as described and transformations were pRSP expression plasmids were done by the lithium acetate method (Superti-Furga, supra). Cells were grown in the presence of 1 μM thiamine to repress expression from the nmtl promoter or in the absence of thiamine to induce expression.
a. Preparation of pyk-2 coated ELISA plate.
1. Coat ELISA plate with 0.5 μg/well anti-pyk-2 mab in 100 μL of pH 9.6 sodium carbonate buffer at 4° C. overnight.
2. Wash wells once with PBS.
3. Block plate with 0.15 mL 5% milk in PBS for 30 min. at room temperature.
4. Wash plate 5× with PBS.
5. Add 10 μg/well of pyk-2 transformed yeast lysates diluted in Lysis Buffer (0.1 mL total volume per well). (Amount of lysate may vary between hatches.) Shake plate for 20 minutes at room temperature.
b. Preparation of phosphotyrosine antibody-coated ELISA plate.
1. 4G10 plate: coat 0.5 μg/well 4G10 in 100 μL PBS overnight at 4° C. and block with 150 μL of 5% milk in PBS for 30 minutes at room temperature.
c. Kinase assay procedure.
1. Remove unbound proteins from steps 1-7, above, and wash plates 5× with PBS.
2. Add 0.08 mL Kinase Reaction Mixture per well (containing […] of 10×Kinase Buffer and 10 pM (final concentration) biotin-[…] per well diluted in water.
3. Add 10 μL of compound diluted in water containing 10% DMSO and pre-incubate for 15 minutes at room temperature.
4. Start kinase reaction by adding 10 μL/well of 0.05 mM ATP in water (5 μM ATP final).
5. Shake ELISA plate for 15 min. at room temperature.
6. Stop kinase reaction by adding 10 μL of 0.5 M EDTA per well.
7. Transfer 90 μL supernatant to a blocked 4G10 coated ELISA plate from section B, above.
8. Incubate for 30 min. while shaking at room temperature.
9. Wash plate 5× with TBST.
10. Incubate with Vectastain ELITE ABC reagent (100 μL/well) for 30 min. at room temperature.
11. Wash the wells 5× with TBST.
12. Develop with Turbo TMB.
as §1

T2 sequence (Q14289 whole entry): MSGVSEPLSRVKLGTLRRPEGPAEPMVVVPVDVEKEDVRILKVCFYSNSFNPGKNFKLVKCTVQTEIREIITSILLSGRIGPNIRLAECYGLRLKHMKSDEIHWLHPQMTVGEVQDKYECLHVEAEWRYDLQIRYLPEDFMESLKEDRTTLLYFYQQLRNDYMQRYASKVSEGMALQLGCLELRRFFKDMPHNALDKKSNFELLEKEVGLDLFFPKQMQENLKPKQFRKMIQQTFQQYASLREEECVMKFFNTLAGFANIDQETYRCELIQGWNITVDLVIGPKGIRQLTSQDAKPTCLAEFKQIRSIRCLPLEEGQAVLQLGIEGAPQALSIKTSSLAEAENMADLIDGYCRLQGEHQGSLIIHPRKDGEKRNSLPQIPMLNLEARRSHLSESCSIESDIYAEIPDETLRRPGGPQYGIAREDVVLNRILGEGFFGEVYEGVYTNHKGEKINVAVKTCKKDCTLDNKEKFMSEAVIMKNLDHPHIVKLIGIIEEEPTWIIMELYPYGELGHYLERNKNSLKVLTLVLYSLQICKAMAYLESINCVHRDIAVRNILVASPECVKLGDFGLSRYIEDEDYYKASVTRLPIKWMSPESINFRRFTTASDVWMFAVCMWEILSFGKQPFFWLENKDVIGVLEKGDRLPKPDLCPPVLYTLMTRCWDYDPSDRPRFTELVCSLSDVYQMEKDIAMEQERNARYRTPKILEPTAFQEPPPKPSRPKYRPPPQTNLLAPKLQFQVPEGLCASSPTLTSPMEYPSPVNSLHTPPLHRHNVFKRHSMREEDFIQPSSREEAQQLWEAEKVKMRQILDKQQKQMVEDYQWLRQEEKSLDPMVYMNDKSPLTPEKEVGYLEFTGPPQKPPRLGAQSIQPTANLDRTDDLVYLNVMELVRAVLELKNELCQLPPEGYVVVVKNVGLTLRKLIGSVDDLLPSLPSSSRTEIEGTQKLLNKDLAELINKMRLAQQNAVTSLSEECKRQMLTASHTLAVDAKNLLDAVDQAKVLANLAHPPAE
T1 sequence (P35918 20-1345): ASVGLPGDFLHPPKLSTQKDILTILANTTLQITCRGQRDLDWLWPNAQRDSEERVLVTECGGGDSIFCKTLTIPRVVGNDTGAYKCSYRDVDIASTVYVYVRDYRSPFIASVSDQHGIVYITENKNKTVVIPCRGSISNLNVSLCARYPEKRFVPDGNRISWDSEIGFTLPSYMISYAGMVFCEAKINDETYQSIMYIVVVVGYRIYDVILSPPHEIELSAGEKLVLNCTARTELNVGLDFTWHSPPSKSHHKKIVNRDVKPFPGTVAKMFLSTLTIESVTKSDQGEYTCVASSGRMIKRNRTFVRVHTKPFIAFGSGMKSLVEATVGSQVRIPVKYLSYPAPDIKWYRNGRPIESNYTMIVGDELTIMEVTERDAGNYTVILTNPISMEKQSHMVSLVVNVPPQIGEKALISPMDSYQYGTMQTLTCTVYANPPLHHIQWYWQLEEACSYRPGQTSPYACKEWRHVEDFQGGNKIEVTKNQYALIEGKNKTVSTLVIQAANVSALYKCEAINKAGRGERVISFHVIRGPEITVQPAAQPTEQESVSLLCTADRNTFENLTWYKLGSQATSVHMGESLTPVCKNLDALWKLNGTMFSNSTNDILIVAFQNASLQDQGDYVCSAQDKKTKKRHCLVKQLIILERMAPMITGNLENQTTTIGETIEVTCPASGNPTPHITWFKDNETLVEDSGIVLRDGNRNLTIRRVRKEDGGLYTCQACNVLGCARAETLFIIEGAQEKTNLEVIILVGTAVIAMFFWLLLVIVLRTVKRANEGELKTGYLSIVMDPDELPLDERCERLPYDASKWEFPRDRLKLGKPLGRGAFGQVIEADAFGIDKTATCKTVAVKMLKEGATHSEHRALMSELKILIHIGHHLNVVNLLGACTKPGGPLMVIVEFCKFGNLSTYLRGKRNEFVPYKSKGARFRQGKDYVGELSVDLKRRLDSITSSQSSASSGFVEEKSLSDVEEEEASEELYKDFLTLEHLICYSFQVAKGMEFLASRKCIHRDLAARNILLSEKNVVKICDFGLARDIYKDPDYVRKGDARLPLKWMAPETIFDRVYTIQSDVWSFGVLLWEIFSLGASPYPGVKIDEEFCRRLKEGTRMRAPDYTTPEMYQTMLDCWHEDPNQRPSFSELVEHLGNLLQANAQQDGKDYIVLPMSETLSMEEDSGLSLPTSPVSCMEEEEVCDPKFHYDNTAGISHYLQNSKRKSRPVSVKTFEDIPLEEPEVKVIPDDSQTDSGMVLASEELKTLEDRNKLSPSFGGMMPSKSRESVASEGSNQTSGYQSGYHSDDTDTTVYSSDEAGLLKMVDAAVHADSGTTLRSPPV

Cc1ccc2c(c1)/C(=C/c1[nH]c3ccccc3c1C)C(=O)N2 [IN-001, 5-Methyl-3-(3-methyl-1H-indol-2-ylmethylene)-1,3-dihydro-indol-2-one]
inhibition at 100 µM (FLK-1 receptor): 10.7% | inhibition at 100 µM (pyk-2 protein kinase): -16%

Cc1c(/C=C2\C(=O)Nc3ccc(S(N)(=O)=O)cc32)[nH]c2ccccc12 [IN-002, 3-(3-Methyl-1H-indol-2-ylmethylene)-2-oxo-2,3-dihydro-1H-indole-5-sulfonic acid amide]
inhibition at 100 µM (FLK-1 receptor): 8.7% | inhibition at 100 µM (pyk-2 protein kinase): 46.7%

Cc1c(/C=C2\C(=O)Nc3ccc(C(=O)O)cc32)[nH]c2ccccc12 [IN-005, 3-(3-Methyl-1H-indol-2-ylmethylene)-2-oxo-2,3-dihydro-1H-indole-5-carboxylic acid]
IC50 (FLK-1 receptor): 4200 nM | IC50 (pyk-2 protein kinase): 220 nM

CC(=O)c1ccc2c(c1)C(=Cc1[nH]c3ccccc3c1C)C(=O)N2 [IN-006, 5-Acetyl-3-(3-methyl-1H-indol-2-ylmethylene)-1,3-dihydro-indol-2-one]
inhibition at 100 µM (FLK-1 receptor): 10.4% | inhibition at 100 µM (pyk-2 protein kinase): 27%

CC(=O)c1ccc2c(c1)C(=Cc1cc3ccccc3[nH]1)C(=O)N2 [IN-007, 5-Acetyl-3-(1H-indol-2-ylmethylene)-1,3-dihydro-indol-2-one]
inhibition at 100 µM (FLK-1 receptor): 30% | inhibition at 100 µM (pyk-2 protein kinase): 17.9%

NS(=O)(=O)c1ccc2c(c1)/C(=C/c1cc3ccccc3[nH]1)C(=O)N2 [IN-008, 3-(1H-Indol-2-ylmethylene)-2-oxo-2,3-dihydro-1H-indole-5-sulfonic acid amide]
inhibition at 100 µM (FLK-1 receptor): 23% | IC50 (pyk-2 protein kinase): 9600 nM

Nc1ccc2c(c1)/C(=C/c1cc3ccccc3[nH]1)C(=O)N2 [IN-009, 5-Amino-3-(1H-indol-2-ylmethylene)-1,3-dihydro-indol-2-one]
IC50 (FLK-1 receptor): 1530 nM | IC50 (pyk-2 protein kinase): 680 nM

O=C1Nc2ccc(C(=O)O)cc2/C1=C/c1cc2ccccc2[nH]1 [IN-010, 3-(1H-Indol-2-ylmethylene)-2-oxo-2,3-dihydro-1H-indole-5-carboxylic acid]
IC50 (FLK-1 receptor): 2100 nM | IC50 (pyk-2 protein kinase): 3400 nM

O=C1Nc2cc(Cl)ccc2/C1=C/c1cc2ccccc2[nH]1 [IN-011, 6-Chloro-3-(1H-indol-2-ylmethylene)-1,3-dihydro-indol-2-one]
inhibition at 100 µM (FLK-1 receptor): 6.1% | inhibition at 100 µM (pyk-2 protein kinase): 7.4%

O=C1Nc2ccccc2/C1=C/c1cc2ccccc2[nH]1 [IN-012, 3-(1H-Indol-2-ylmethylene)-1,3-dihydro-indol-2-one]
inhibition at 100 µM (FLK-1 receptor): 17.6% | inhibition at 100 µM (pyk-2 protein kinase): 5.1%

O=C1Nc2ccc(Cl)cc2/C1=C/c1cc2ccccc2[nH]1 [IN-013, 5-chloro-3-(1H-indol-2-ylmethylene)-1,3-dihydro-indol-2-one]
inhibition at 100 µM (FLK-1 receptor): 17% | inhibition at 100 µM (pyk-2 protein kinase): -12%

Cc1c(/C=C2\C(=O)Nc3ccccc32)[nH]c2ccccc12 [IN-016, 3-(3-Methyl-1H-indol-2-ylmethylene)-1,3-dihydro-indol-2-one]
inhibition at 100 µM (FLK-1 receptor): 26% | inhibition at 100 µM (pyk-2 protein kinase): -12.5%

Cc1c(/C=C2\C(=O)Nc3ccc(Cl)cc32)[nH]c2ccccc12 [IN-017, 5-Chloro-3-(3-methyl-1H-indol-2-ylmethylene)-1,3-dihydro-indol-2-one]
inhibition at 100 µM (FLK-1 receptor): 20.4% | inhibition at 100 µM (pyk-2 protein kinase): -12%

Cc1c(/C=C2\C(=O)Nc3ccc(Br)cc32)[nH]c2ccccc12 [IN-018, 5-Bromo-3-(3-methyl-1H-indol-2-ylmethylene)-1,3-dihydro-indol-2-one]
inhibition at 100 µM (FLK-1 receptor): 15.8% | inhibition at 100 µM (pyk-2 protein kinase): 62%

Cc1cccc2c1/C(=C/c1[nH]c3ccccc3c1C)C(=O)N2 [IN-019, 4-Methyl-3-(3-methyl-1H-indol-2-ylmethylene)-1,3-dihydro-indol-2-one]
inhibition at 100 µM (FLK-1 receptor): 10.7% | inhibition at 100 µM (pyk-2 protein kinase): -36%
